# Reference: PMC8262356, “SLC26A6-selective inhibitor identified in a small-molecule screen blocks fluid absorption in small intestine” (JCI Insight, 2021)
# Several values for one entry are separate records, joined by “and”; a condition that tells them apart may be missing. Equal values may be shown once.
# Legend:
# PAT1 (murine slc26a6) = molecular target: T1, PAT1 (murine slc26a6) (Mus musculus, UniProt Q8CIW6); assay: PAT1-mediated Cl-/I- exchange, YFP fluorescence quenching in FRT cells; assay type: cell-based
# T1 construct: host or cells: Fischer rat thyroid (FRT) cells, lentiviral transduction (pLVX-IRES-mCherry-slc26a6), clonal line FRT-YFP-slc26a6
# T1 sequence (Q8CIW6 24-758 limits assumed): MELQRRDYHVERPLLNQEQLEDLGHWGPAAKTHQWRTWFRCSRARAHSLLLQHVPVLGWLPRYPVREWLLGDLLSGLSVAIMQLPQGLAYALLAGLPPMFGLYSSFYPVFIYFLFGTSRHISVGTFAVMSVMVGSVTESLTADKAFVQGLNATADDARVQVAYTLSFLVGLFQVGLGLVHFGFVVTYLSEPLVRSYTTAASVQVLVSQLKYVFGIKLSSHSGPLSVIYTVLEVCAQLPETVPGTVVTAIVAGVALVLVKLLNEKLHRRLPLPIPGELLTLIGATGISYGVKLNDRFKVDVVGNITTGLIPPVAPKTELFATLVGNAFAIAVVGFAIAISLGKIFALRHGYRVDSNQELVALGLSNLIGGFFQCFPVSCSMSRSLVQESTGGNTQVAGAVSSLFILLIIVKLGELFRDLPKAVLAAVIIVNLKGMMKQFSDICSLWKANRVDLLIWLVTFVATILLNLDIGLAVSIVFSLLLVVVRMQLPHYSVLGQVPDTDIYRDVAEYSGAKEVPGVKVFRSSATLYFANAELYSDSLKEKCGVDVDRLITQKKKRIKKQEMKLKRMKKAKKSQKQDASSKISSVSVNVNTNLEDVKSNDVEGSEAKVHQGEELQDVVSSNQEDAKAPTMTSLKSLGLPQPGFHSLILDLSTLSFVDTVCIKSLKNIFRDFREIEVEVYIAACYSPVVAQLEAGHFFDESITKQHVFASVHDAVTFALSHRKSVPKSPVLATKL
# Experimental: A small-molecule screen was developed to identify PAT1 inhibitors utilizing transfected FRT cells expressing PAT1 (murine slc26a6) together with a halide-sensing cytoplasmic YFP (Figure 1A). Adherent cells in a 96-well format were subjected to an inward gradient of I^– to drive exchange of I^– for Cl^– and consequent quenching of the YFP fluorescence signal.
# A collection of approximately 50,000 diverse, drug-like synthetic small molecules (ChemDiv) was screened at a concentration of 25 μM using a Beckman Coulter BioMek FX liquid handling platform with FLUOstar OMEGA plate readers (BMG Labtech). FRT-YFP-slc26a6 cells were plated in 96-well black-walled, clear-bottom plates (Corning Life Sciences) at a density of 20,000 cells/well and cultured for 48 hours until confluent. Cells were washed twice in PBS and incubated for 10 minutes prior to assay in 100 μl PBS containing test compounds. For assay of slc26a6 function, baseline cellular fluorescence was measured for 2 seconds, after which 100 μl NaI-substituted PBS (140 mM NaCl replaced by 140 mM NaI) was added by syringe pump to drive Cl^–/I^– exchange. The initial rate of Cl^–/I^– exchange was determined by single exponential regression of the fluorescence time course. All assay plates contained wells with negative (1% DMSO) and positive (500 μM niflumic acid) controls. For structure-activity relationship studies, analogs of active compounds were purchased from ChemDiv.
# FRT cells = assay: Cytotoxicity, Alamar Blue assay; assay type: cell-based, rat; settings: 10 μM, 48 h
# Experimental: FRT cells were plated in black-walled, clear-bottom tissue culture plates at a density of 20,000 cells/well. After 24 hours in culture, cells were incubated with 10 μM PAT1inh-B01, 0.1% DMSO (vehicle control), or 20 % DMSO (positive control) for 48 hours for assay of cell viability using Alamar Blue (Thermo Fischer Scientific) according to the manufacturer’s instructions.
smiles,measurement,setting,value
Cc1c(Br)c(C(F)(F)F)nn1CC(=O)N1CCc2nc3cc(-c4ccccc4)[nH]n3c(=O)c2C1 [PAT1inh-B01],time to 50% inhibition of PAT1-mediated Cl-/I- exchange,PAT1 (murine slc26a6); 1 μM,approximately 3 minutes
same,IC50,"PAT1 (murine slc26a6); FRT cells expressing PAT1 and YFP, read-out: IC50, inhibition of PAT1-mediated Cl-/I- exchange",~350 nM and 350 nM
same,inhibition at 25 µM,"PAT1 (murine slc26a6); FRT, 25 μM, primary screen",> 75%
same,reversibility of inhibition following washout,PAT1 (murine slc26a6); data not shown,fully reversible
same,"cytotoxicity (cell viability, Alamar Blue)",FRT cells,did not cause cytotoxicity
